For test [1], the target named is T1, mannose/Concanavalin A interaction (Canavalia ensiformis, UniProt P02866). As to the kind of experiment: Inhibition competition assay with hydrogel particles, surface energy read out via RICM (SCP-RICM, inventive method). The class given is binding. The following applies: for IC50: read-out: IC50 value determined using an inventive method.
The target of test [2] is T1, mannose/Concanavalin A interaction. The note with it: SPR measurements reported earlier; PAA Man values normalized per mannose; read-out: IC50 value determined using SPR inhibition assay; cited from earlier work. (In SPR one partner is held on a chip, and binding of the other changes the refractive index at the surface.)

Where two headings read alike, the source gives them in different places.

As usually defined, the IC50 is the point on the concentration scale where inhibition reaches its midpoint. On to `CO[C@H]1O[C@H](CO)[C@@H](O)[C@H](O)[C@@H]1O` [α-methyl-D-mannose], for which, in test [1] (10 mM analyte added into the measurement cell (critical level of competitive analyte)), the “contact areas of functionalized hydrogel particles and surface energies” value is “completely vanish”. Moreover, the surface energy result in test [1] (analyte at lower concentrations up to 5 mM, particles still in contact with the carrier surface) was “gradually decreases with the concentration of added analyte”. Also, the 50% inhibitory concentration (IC50) is 649 ± 76.8 µM in test [1] (inverted system: PEG-ConA particles against a mannose functionalized surface (Fig. 7b)); 618 ± 19.1 µM in test [1] (mannose functionalized hydrogel particles, ConA immobilized on the solid carrier (Fig. 7a), Hill fit of normalized surface energy, PAA Man values normalized per mannose); 750 µM in test [2].

The record behind these values is patent EP2752664A1, “Label-free method for the detection of analytes” (priority 2013, dated 2014).
